Source: patent US20080182851A1, “ACETYLENE DERIVATIVES AS STEAROYL COA DESATURASE INHIBITORS” (Glenmark Pharmaceuticals S.A., priority 2006, published 2008)

Target: T1, human SCD1 enzyme (Homo sapiens, UniProt O00767)
T1 sequence (O00767 1-359): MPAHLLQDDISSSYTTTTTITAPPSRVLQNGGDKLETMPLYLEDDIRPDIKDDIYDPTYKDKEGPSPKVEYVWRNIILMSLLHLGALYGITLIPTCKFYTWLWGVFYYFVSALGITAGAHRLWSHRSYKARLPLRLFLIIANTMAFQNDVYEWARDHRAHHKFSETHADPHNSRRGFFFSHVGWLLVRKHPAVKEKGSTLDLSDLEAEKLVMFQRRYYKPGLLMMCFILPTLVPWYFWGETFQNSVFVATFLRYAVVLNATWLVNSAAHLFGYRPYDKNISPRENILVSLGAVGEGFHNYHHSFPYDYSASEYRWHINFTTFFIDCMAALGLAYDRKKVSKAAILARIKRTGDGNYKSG
Assay: Tritiated water release assay (conversion of radiolabeled stearoyl-CoA to oleoyl-CoA)
Type: biochemical
Conditions: 10 μM concentration of test compounds; microsomal SCD1, 3H stearoyl CoA, 37° C. 30 minutes; percent of control reaction; read-out: % Inhibition

inhibition at 10 µM: 96%
Structure (SMILES): Oc1ccc(C#Cc2ccc(N3CCC(Nc4ccccc4F)CC3)nn2)cc1 [Example 102, 4-{6-[4-(2-Fluorophenylamino)piperidin-1-yl]pyridazin-3-yl}ethynylphenol]
